Reference: ChEMBL document CHEMBL4831544, “Discovery of IHMT-EZH2-115 as a Potent and Selective Enhancer of Zeste Homolog 2 (EZH2) Inhibitor for the Treatment of B-Cell Lymphomas” (J Med Chem, 2021)

Tests used:
[1] = Antiproliferative activity against human WSUDLCL2 cells assessed as inhibition of cell growth measured after 6 days by CellTiter-Glo luminescent assay; format: functional; conditions: WSUDLCL2, 144 h, time 6 day
[2] = Half life in rat at 10 mg/kg, po; format: ADME, organism-based; conditions: in vivo
[3] = Cmax in rat at 10 mg/kg, po; format: ADME, organism-based; parameters: route oral, dose 10 mg/kg; conditions: in vivo
[4] = AUC (0 to infinity) in rat at 10 mg/kg, po; format: ADME, organism-based; parameters: time infinity, route oral, dose 10 mg/kg; conditions: in vivo
[5] = Half life in rat at 1 mg/kg, iv; format: ADME, organism-based; conditions: in vivo
[6] = Cmax in rat at 1 mg/kg, iv; format: ADME, organism-based; parameters: route intravenous, dose 1 mg/kg; conditions: in vivo
[7] = Apparent volume of distribution in rat at 1 mg/kg, iv; format: ADME, organism-based; conditions: in vivo, read-out: Vz
[8] = target: Histone-lysine N-methyltransferase EHMT2 (Homo sapiens) (UniProt Q96KQ7); assay: Inhibition of G9A (unknown origin) at 10 uM using SAM as substrate measured up to 960 mins by AlphaScreen microplate reader assay relative to control; conditions: time min <=960
[9] = target: Histone-lysine N-methyltransferase SUV39H1 (Homo sapiens) (UniProt O43463); assay: Inhibition of SUV39H1 (unknown origin) at 10 uM using SAM as substrate measured up to 960 mins by AlphaScreen microplate reader assay relative to control; conditions: time min <=960
[10] = target: Protein arginine N-methyltransferase 1 (Homo sapiens) (UniProt Q99873); assay: Inhibition of PRMT1 (unknown origin) at 10 uM using SAM as substrate measured up to 960 mins by AlphaScreen microplate reader assay relative to control; conditions: time min <=960
[11] = target: Protein arginine N-methyltransferase 8 (Homo sapiens) (UniProt Q9NR22); assay: Inhibition of PRMT8 (unknown origin) at 10 uM using SAM as substrate measured up to 960 mins by AlphaScreen microplate reader assay relative to control; conditions: time min <=960
[12] = target: F-box only protein 11 (Homo sapiens) (UniProt Q86XK2); assay: Inhibition of PRMT9 (unknown origin) at 10 uM using SAM as substrate measured up to 960 mins by AlphaScreen microplate reader assay relative to control; conditions: time min <=960
[13] = target: Histone-lysine N-methyltransferase KMT5B (Homo sapiens) (UniProt Q4FZB7); assay: Inhibition of SUV4-20H1 (unknown origin) at 10 uM using SAM as substrate measured up to 960 mins by AlphaScreen microplate reader assay relative to control; conditions: time min <=960
[14] = target: Histone-lysine N-methyltransferase SETDB1 (Homo sapiens) (UniProt Q15047); assay: Inhibition of SETDB1 (unknown origin) at 10 uM using SAM as substrate measured up to 960 mins by AlphaScreen microplate reader assay relative to control; conditions: time min <=960
[15] = target: Histone-lysine N-methyltransferase SETD2 (Homo sapiens) (UniProt Q9BYW2); assay: Inhibition of SETD2 (unknown origin) at 10 uM using SAM as substrate measured up to 960 mins by AlphaScreen microplate reader assay relative to control; conditions: time min <=960
[16] = target: N-lysine methyltransferase KMT5A (Homo sapiens) (UniProt Q9NQR1); assay: Inhibition of SET8 (unknown origin) at 10 uM using SAM as substrate measured up to 960 mins by AlphaScreen microplate reader assay relative to control; conditions: time min <=960
[17] = tested on: Histone-lysine N-methyltransferase EZH2 (Homo sapiens), Q15910 [P132S]; assay: Inhibition of EZH2 P132S mutant (unknown origin) at 10 uM using SAM as substrate measured up to 960 mins by AlphaScreen microplate reader assay relative to control; conditions: time min <=960
[18] = tested on: Histone-lysine N-methyltransferase EZH2 (Homo sapiens), Q15910 [Y641C]; assay: Inhibition of EZH2 Y641C mutant (unknown origin) at 10 uM using SAM as substrate measured up to 960 mins by AlphaScreen microplate reader assay relative to control; conditions: time min <=960
[19] = tested on: Histone-lysine N-methyltransferase EZH2 (Homo sapiens), Q15910 [Y641H]; assay: Inhibition of EZH2 Y641H mutant (unknown origin) at 10 uM using SAM as substrate measured up to 960 mins by AlphaScreen microplate reader assay relative to control; conditions: time min <=960
[20] = tested on: Histone-lysine N-methyltransferase EZH2 (Homo sapiens), Q15910 [Y641N]; assay: Inhibition of EZH2 Y641N mutant (unknown origin) at 10 uM using SAM as substrate measured up to 960 mins by AlphaScreen microplate reader assay relative to control; conditions: time min <=960
Pfeiffer [21] = assay: Antiproliferative activity against human Pfeiffer cells harboring EZH2 A677G mutant assessed as inhibition of cell growth measured after 6 days by CellTiter-Glo luminescent assay; format: functional; conditions: 144 h, time 6 day
[22] = Antiproliferative activity against human WSUDLCL2 cells harboring EZH2 Y641F mutant assessed as inhibition of cell growth measured after 6 days by CellTiter-Glo luminescent assay; format: functional; conditions: WSUDLCL2, 144 h, time 6 day
U2932 = assay: Antiproliferative activity against human U2932 cells expressing wild type EZH2 assessed as inhibition of cell growth measured after 6 days by CellTiter-Glo luminescent assay; format: functional; conditions: U2932, 144 h, time 6 day
Daudi = assay: Antiproliferative activity against human Daudi cells expressing wild type EZH2 assessed as inhibition of cell growth measured after 6 days by CellTiter-Glo luminescent assay; conditions: 144 h
Pfeiffer [23] = assay: Antitumor activity against human Pfeiffer cells harboring EZH2 A677G mutant xenografted in NCG mouse assessed as tumor growth inhibition at 50 mg/kg, po BID via gavage measured after 28 days relative to control; format: functional; conditions: 672 h, time 28 day, read-out: TGI
Pfeiffer [24] = assay: Antitumor activity against human Pfeiffer cells harboring EZH2 A677G mutant xenografted in NCG mouse assessed as tumor growth inhibition at 200 mg/kg, po BID via gavage measured after 28 days relative to control; format: functional; conditions: 672 h, time 28 day, read-out: TGI
KARPAS-422 [25] = assay: Antitumor activity against human KARPAS-422 cells harboring EZH2 Y641N mutant xenografted in NCG mouse assessed as tumor growth inhibition at 200 mg/kg, po BID via gavage measured after 28 days relative to control; format: functional; conditions: KARPAS-422, po, 672 h, time 28 day, read-out: TGI
[26] = Toxicity in NCG mouse xenografted with human Pfeiffer cells harboring EZH2 A677G mutant assessed as effect on body weight at 50 to 200 mg/kg, po BID via gavage measured after 28 days; format: organism-based; conditions: in vivo, 672 h, dose 50-200 mg/kg, time 28 day
[27] = Cmax in mouse at 10 mg/kg, po measured up to 24 hrs by LC-MS/MS analysis; format: ADME, organism-based; parameters: route oral, dose 10 mg/kg, time <=24; conditions: in vivo
[28] = AUC (0 to t) in mouse at 10 mg/kg, po measured up to 24 hrs by LC-MS/MS analysis; format: ADME, organism-based; parameters: route oral, dose 10 mg/kg, time <=24; conditions: in vivo
[29] = Clearance in mouse at 10 mg/kg, po measured up to 24 hrs by LC-MS/MS analysis; format: ADME, organism-based; conditions: in vivo
[30] = Apparent volume of distribution in mouse at 1 mg/kg, iv measured up to 24 hrs by LC-MS/MS analysis; format: ADME, organism-based; conditions: in vivo
KARPAS-422 [31] = assay: Antitumor activity against human KARPAS-422 cells harboring EZH2 Y641N mutant xenografted in NCG mouse assessed as change in tumor weight at 200 mg/kg, po BID via gavage measured after 28 days (reference value: 2.14 g); format: functional; conditions: time 28 day

Sequence of Histone-lysine N-methyltransferase EZH2 (Homo sapiens), Q15910 [Y641N] (Q15910 whole entry Y641N): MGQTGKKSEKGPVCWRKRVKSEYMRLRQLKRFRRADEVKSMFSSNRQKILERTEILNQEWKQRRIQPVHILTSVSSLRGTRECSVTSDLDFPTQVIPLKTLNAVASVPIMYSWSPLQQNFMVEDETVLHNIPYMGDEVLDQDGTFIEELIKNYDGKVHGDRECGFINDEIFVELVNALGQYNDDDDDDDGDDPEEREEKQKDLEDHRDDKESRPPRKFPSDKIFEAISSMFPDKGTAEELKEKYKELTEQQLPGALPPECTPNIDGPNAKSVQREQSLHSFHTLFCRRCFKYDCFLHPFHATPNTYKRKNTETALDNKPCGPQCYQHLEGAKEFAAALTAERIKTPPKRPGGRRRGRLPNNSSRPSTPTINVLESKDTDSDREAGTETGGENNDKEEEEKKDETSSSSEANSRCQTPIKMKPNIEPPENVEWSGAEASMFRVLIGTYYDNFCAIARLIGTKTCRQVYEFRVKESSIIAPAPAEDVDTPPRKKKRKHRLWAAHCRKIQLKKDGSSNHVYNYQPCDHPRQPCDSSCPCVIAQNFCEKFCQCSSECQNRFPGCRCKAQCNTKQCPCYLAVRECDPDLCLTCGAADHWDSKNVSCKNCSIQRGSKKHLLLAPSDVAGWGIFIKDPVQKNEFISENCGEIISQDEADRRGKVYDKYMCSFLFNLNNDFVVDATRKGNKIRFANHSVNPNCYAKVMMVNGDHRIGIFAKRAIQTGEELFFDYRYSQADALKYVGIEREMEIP
Sequence of F-box only protein 11 (Homo sapiens) (Q86XK2 whole entry): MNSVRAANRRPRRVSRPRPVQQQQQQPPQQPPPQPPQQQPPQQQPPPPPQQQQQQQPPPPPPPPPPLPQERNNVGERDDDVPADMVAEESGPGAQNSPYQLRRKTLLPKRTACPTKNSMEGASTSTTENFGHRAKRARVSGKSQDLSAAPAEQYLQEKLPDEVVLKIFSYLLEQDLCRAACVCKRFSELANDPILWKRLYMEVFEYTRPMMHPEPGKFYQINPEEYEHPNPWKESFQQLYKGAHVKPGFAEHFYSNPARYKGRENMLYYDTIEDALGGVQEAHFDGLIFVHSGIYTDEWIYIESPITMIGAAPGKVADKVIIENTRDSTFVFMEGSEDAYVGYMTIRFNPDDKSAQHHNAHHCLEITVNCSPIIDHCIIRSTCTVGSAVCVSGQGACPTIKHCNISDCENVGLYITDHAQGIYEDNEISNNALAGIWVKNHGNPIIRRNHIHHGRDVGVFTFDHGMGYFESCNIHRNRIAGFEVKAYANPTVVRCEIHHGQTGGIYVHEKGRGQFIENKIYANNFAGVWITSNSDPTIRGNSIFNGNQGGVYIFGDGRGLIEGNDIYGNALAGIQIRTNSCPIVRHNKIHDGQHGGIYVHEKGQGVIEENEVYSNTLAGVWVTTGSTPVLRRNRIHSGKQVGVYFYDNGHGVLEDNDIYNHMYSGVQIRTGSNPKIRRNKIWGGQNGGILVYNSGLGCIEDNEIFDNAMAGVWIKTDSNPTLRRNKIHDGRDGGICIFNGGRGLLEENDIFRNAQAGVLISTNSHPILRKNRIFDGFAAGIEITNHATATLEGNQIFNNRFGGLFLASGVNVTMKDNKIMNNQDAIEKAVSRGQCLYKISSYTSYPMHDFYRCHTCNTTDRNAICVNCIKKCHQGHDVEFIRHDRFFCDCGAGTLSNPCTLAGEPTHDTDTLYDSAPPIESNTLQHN
Sequence of Histone-lysine N-methyltransferase SUV39H1 (Homo sapiens) (O43463 whole entry): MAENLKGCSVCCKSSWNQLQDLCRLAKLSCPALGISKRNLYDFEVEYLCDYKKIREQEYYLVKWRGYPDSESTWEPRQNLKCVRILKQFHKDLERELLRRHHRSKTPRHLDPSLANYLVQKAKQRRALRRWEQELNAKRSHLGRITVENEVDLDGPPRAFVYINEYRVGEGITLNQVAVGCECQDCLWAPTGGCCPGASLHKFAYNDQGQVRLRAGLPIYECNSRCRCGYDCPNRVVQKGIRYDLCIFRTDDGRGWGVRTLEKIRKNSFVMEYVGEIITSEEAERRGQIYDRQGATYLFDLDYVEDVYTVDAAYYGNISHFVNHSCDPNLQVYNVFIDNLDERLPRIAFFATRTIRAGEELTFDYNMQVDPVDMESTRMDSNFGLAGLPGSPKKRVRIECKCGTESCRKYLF
Sequence of Protein arginine N-methyltransferase 1 (Homo sapiens) (Q99873 whole entry, looked up): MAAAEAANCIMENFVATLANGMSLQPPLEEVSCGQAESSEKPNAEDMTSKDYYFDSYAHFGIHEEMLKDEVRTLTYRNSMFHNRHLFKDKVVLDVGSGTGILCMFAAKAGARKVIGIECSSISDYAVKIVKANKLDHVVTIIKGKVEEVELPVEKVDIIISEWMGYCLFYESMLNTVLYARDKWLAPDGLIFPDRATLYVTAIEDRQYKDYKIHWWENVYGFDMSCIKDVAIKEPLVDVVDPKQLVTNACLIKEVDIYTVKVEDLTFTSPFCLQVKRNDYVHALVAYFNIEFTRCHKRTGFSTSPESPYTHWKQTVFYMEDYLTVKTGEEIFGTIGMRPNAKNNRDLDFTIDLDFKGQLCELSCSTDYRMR
Sequence of Histone-lysine N-methyltransferase KMT5B (Homo sapiens) (Q4FZB7 whole entry, looked up): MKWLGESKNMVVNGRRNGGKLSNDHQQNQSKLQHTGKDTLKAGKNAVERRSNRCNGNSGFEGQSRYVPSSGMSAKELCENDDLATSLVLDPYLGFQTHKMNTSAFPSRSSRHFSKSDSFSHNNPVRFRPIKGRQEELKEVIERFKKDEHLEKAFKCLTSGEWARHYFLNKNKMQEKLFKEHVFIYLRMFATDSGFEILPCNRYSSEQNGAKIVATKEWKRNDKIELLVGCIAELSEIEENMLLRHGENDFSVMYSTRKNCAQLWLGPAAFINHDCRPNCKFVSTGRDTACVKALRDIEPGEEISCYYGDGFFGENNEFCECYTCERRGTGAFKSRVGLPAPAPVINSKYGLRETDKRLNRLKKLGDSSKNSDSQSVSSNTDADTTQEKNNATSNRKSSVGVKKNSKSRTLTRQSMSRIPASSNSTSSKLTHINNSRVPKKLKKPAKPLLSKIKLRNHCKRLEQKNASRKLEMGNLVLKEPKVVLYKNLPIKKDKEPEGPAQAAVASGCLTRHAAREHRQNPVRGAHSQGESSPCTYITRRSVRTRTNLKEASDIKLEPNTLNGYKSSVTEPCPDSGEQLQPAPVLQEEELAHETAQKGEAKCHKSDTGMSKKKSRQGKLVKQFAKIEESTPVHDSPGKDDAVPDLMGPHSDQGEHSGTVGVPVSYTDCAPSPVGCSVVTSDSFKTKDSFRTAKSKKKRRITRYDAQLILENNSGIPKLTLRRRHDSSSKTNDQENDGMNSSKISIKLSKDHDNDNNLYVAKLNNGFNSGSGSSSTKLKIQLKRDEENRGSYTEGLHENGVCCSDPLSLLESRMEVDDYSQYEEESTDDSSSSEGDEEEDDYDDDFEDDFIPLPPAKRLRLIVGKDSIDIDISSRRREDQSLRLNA
Sequence of Histone-lysine N-methyltransferase EHMT2 (Homo sapiens) (Q96KQ7 whole entry): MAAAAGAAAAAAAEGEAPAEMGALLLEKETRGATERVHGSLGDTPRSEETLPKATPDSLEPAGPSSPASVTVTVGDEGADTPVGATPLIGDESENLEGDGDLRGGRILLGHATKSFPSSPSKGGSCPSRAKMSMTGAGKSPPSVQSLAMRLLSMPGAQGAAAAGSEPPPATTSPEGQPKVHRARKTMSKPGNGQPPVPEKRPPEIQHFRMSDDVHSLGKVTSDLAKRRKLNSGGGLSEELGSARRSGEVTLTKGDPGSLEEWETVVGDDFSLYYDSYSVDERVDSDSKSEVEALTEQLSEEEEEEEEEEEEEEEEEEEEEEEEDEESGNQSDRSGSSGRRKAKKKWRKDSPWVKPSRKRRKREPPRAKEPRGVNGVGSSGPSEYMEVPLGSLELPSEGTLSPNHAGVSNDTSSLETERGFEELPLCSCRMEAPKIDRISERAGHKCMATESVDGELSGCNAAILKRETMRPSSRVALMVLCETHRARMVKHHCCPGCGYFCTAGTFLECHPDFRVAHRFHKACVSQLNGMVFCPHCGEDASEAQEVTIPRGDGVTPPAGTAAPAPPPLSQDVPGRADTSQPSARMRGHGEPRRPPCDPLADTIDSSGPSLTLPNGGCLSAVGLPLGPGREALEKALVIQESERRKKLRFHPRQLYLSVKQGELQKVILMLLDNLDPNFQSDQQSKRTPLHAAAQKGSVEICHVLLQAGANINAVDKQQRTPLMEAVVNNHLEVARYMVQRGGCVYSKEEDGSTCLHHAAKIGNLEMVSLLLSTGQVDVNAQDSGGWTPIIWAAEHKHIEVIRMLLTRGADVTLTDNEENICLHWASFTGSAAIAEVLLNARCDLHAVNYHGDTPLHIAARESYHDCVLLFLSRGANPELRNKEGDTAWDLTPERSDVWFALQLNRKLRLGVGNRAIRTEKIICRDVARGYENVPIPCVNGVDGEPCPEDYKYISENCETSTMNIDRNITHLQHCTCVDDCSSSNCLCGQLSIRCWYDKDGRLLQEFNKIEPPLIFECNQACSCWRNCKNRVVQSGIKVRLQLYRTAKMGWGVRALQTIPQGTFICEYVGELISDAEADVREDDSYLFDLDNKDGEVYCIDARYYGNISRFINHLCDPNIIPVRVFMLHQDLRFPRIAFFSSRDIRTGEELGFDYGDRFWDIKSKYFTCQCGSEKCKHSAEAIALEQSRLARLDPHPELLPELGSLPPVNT
Sequence of Protein arginine N-methyltransferase 8 (Homo sapiens) (Q9NR22 2-394 limits assumed): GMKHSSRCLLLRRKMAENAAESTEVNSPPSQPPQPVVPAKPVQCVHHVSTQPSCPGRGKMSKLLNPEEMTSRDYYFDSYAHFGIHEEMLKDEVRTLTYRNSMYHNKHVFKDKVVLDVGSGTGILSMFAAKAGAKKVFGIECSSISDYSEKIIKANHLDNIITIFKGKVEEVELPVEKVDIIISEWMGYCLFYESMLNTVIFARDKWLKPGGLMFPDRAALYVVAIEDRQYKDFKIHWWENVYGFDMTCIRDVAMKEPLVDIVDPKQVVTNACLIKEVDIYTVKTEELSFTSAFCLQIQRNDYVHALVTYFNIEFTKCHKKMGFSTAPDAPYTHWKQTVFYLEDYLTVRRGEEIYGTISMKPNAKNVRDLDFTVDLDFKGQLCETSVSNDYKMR

SMILES: CCN(C(=O)C1CC1)c1cc(-c2ccc(N3CCN(CC4CC4)CC3)nc2C)cc(C(=O)NCc2c(C)cc(C)[nH]c2=O)c1C
- GI50 [1]: 200 nM
- half-life [2]: 1.45 h
- Cmax [3]: 240 ng/mL
- AUC(0-inf) [4]: 604 ng·h/mL
- half-life [5]: 1.82 h
- Cmax [6]: 406 ng/mL
- Vd [7]: 9.1 L/kg
- inhibition [8]: 0%
- inhibition [9]: 1%
- inhibition [10]: 7%
- inhibition [11]: 0%
- inhibition [12]: 9%
- inhibition [13]: 0%
- inhibition [14]: 1%
- inhibition [15]: 0%
- inhibition [16]: 2%
- inhibition [17]: 100%
- inhibition [18]: 95%
- inhibition [19]: 81%
- inhibition [20]: 98%
- GI50 (Pfeiffer [21]): 3 nM
- GI50 [22]: 140 nM
- GI50 (U2932): > 10000 nM
- GI50 (Daudi): > 10000 nM
- inhibition in vivo at 50 mg/kg (Pfeiffer [23]): 91.8%
- inhibition in vivo at 200 mg/kg (Pfeiffer [24]): 100%
- inhibition in vivo at 200 mg/kg (KARPAS-422 [25]): 97.3%
- Activity [26]: Non-Toxic
- Cmax [27]: 671 ng/mL
- AUC(0-t) at 24 h [28]: 1000 ng·h/mL
- CL [29]: 165.9 mL/min/kg
- Vz [30]: 20.833 L/kg
- Activity (KARPAS-422 [31]): 0.057 g
